Patent US20230072949A1, “NANOMATERIALS FOR TARGETED TREATMENT AND IMAGING OF ANEURYSMAL MICROENVIRONMENT” (The University of North Carolina at Chapel Hill, priority 2020, published 2023)
Where a SMILES comes first, the peptide text is derived from it. Where no end group is shown, it is not given here. The star is where a group is joined. Palmitoyl = CCCCCCCCCCCCCCCC(=O)*; Lauroyl = CCCCCCCCCCCC(=O)*; C16 = C16 lipid tail

Legend:
[1] = Organ distribution of PA (kidney, liver, lung, spleen, aorta) by LSFM; format: in vivo, Sprague Dawley rats; settings: 2 hours post injection (FIG. 11)
Method: (A) Organ distribution of MMP-2 targeting PA 1 in the kidney, liver, lung, spleen, and aorta of Sprague Dawley rats 2 hours post injection. White color represents autofluorescence and red to yellow represents TAMRA-labeled PA. (B) Plotted mean data of the ratio of PA to tissue in each organ.
Targeting specificity of both MMP-2-targeting and elastin-targeting PAs to the aneurysmal aorta, non-aneurysmal suprarenal aorta, and all vital organs is assessed using in vivo imaging system (IVIS), light-sheet fluorescence microscopy (LSFM), and immunofluorescence (IF) microscopy. […] Targeting specificity was determined by measuring pixel count above an assigned threshold. Further, MMP-2 was quantified using IF microscopy and correlated to the amount of MMP-2-targeting PA. When no adverse side effects occurred, the dosage was increased until we achieved saturation of targeting. With this experiment, we confirmed that targeted PA nanomaterials localized to the site of interest and optimal dose for duration studies was determined. Results are shown for 2 hours post PA injection of either 2.5 mg, 5 mg, or 10 mg of MMP-2-targeting PA 1. A higher PA volume to tissue volume ratio is seen in the 5 mg and 10 mg dose than the 2.5 mg dose. The 5 mg dose was selected for further investigation. […]

[2] = test system: aneurysmal aorta (CaCl2-induced AAA of the infrarenal aorta); assay: Targeting of PA nanomaterials to aneurysmal tissue in CaCl2-induced AAA rats (LSFM / fluorescence microscopy after intravenous injection); format: in vivo, Sprague Dawley rats; settings: for targeting to the rat aorta (LSFM images): 2 hours post PA injection (FIG. 8A); for Targeting Capability: Table 1, aneurysm targeting
Source text: We also validated the CaCl2 model, by inducing aneurysms in 10 male and 7 female Sprague Dawley rats. We measured aortic diameter before AAA induction and then at days 14, 21, and 28 after induction using ultrasound. At day 35, we performed an endpoint surgery and measured the diameter of the aorta, perfusion-fixed the rats, and collected tissue. Tissue was cryo-sectioned and assayed for elastin (Verhoeff-Van Gieson (VVG)), calcium (Von Kossa), and MMP-2 (IF) staining. […] There was no significant difference between male and female rats in aortic dilation (data not shown). Further, we found both elastin fragmentation, and robust MMP-2 protein staining in the aortas exposed to CaCl2, with negligible amounts of fragmentation and MMP-2 in the suprarenal aortas from the same animals (FIG. 2 C+F). Fragmentation of elastin and MMP-2 corresponded to regions of the aorta that were calcified (FIG. 2E).
To evaluate the targeting specificity of the targeted PA nanomaterials, we induced AAA in the infrarenal aorta of Sprague Dawley rats by exposure to CaCl2. After 35 days, a period consistent with aneurysm formation, the targeted PA nanomaterials was injected intravenously. We assessed targeting specificity and duration to aneurysmal sites as well as to all vital organs. We also determined optimal concentration, dose, and co-assembly ratios. Controls included rats injected with saline alone, non-targeted PA nanomaterials, and PA nanomaterials bearing a scrambled targeting sequence.
Experimental Design. Dosage and targeting specificity. To evaluate specific localization of targeted PA nanomaterials, AAA is induced in the infrarenal aorta of male and female Sprague Dawley rats by exposure to CaCl2) (FIG. 4 and FIG. 5A). The features of human AAA can be recapitulated in rodent models. Here, we developed and validated a surgical model of AAA, where CaCl2 is applied to the periadventitial surface of the aorta.^4, 18 While no single model perfectly replicates human AAA, similarities between CaCl2-induced AAA and human aneurysms makes this a useful model. […]
Aortic dilation is measured using ultrasound imaging. […]
Targeting specificity of both MMP-2-targeting and elastin-targeting PAs to the aneurysmal aorta, non-aneurysmal suprarenal aorta, and all vital organs is assessed using in vivo imaging system (IVIS), light-sheet fluorescence microscopy (LSFM), and immunofluorescence (IF) microscopy. […] Targeting specificity was determined by measuring pixel count above an assigned threshold. Further, MMP-2 was quantified using IF microscopy and correlated to the amount of MMP-2-targeting PA. […] With this experiment, we confirmed that targeted PA nanomaterials localized to the site of interest and optimal dose for duration studies was determined. […]

Question: With `CCCCCCCCCCCCCCCC(=O)N[C@H](C(=O)N[C@H](C(=O)N[C@@H](C)C(=O)N[C@@H](C)C(=O)N[C@@H](CCC(=O)O)C(=O)N[C@@H](CCC(=O)O)C(=O)NCC(=O)NCC(=O)N[C@@H](CCCNC(=N)N)C(=O)NCC(=O)N[C@@H](C)C(=O)N[C@@H](C)C(=O)N1CCC[C@H]1C(=O)N1CCC[C@H]1C(=O)N[C@@H](CCCCN)C(=O)N[C@@H](CCC(N)=O)C(=O)N[C@@H](CCC(=O)O)C(=O)N[C@@H](Cc1ccccc1)C(=O)N[C@@H](CC(C)C)C(=O)N[C@@H](CC(=O)O)C(=O)N[C@H](C(=O)N[C@@H](CCC(=O)O)C(=O)O)[C@@H](C)CC)C(C)C)C(C)C` [MMP-2_RGA] (Palmitoyl-VVAAEEGGRGAAPPKQEFLDIE-OH; N-terminus and C-terminus assumed) as the compound, how does the “organ distribution (kidney, liver, lung, spleen, aorta)” value ([1]; listed as MMP-2-targeting PA 1) read?
Answer: Its value is “predominantly localized to the aorta”.

Question: And the “organ distribution (kidney, liver, lung, spleen, aorta)” value ([1]; listed as MMP-2 targeting PA)?
Answer: Its value is “predominantly localizes to the aorta”.

Question: For “(C16)VVAAEEGGLWMDWVTEKNIN (C16-VVAAEEGGLWMDWVTEKNIN) [MTI-MMP_LWM, MT1-MMP-targeting peptide amphiphile]”, which “targeting to the rat aorta (LSFM images)” value [2] is on record?
Answer: The value was “targeting to the rat aorta”.

Question: And the “Targeting Capability” value [2]?
Answer: Its value is “Targets aneurysm”.

Question: For “PLSEWRASYNGGEEAAVVK(C12) (PLSEWRASYNGGEEAAVVK(Lauroyl)) [Fragmented Elastin_PLS, fragmented elastin-targeting peptide amphiphile on E2A2V2K(C12) diluent backbone]”, which “targeting to the rat aorta (LSFM images)” value [2] is on record?
Answer: The value was “targeting to the rat aorta”.

Question: What about the “Targeting Capability” value [2] of the same compound?
Answer: Its value is “Does not target”.
